According to patent US20110256240A1, “Combination Therapy” (priority 2004, published 2011):

Tested on: range of tumour models
Assay: anti-tumour activity in a range of models
Assay type: in vivo
Conditions: once-daily oral administration

With `COc1cc2c(Oc3ccc4[nH]c(C)cc4c3F)ncnc2cc1OCCCN1CCCC1` [AZD2171, 4-(4-fluoro-2-methyl-1H-indol-5-yloxy)-6-methoxy-7-(3-(pyrrolidin-1-yl)propoxy)quinazoline] the “anti-tumour activity in a range of models” value was “broad-spectrum anti-tumour activity”.
